Measurements taken from ChEMBL document CHEMBL1138457, “Design and synthesis of an orally bioavailable and selective peptide epoxyketone proteasome inhibitor (PR-047)” (J Med Chem, 2009).

test system: not listed separately; test: Inhibition of chymotrypsin-like activity of human 20S proteasome by spectrofluorimetry; settings: not given

Row | SMILES | IC50 [nM]
1 | CC(C)C[C@H](NC(=O)[C@H](Cc1ccccc1)NC(=O)[C@H](Cc1ccncc1)NC(=O)c1cc(CN2CCOCC2)on1)C(=O)[C@@]1(C)CO1 | 5.1
2 | COCc1cc(C(=O)N[C@@H](CC(C)C)C(=O)N[C@@H](Cc2ccccc2)C(=O)N[C@@H](CC(C)C)C(=O)[C@@]2(C)CO2)no1 | 1.2
3 | CC(C)C[C@H](NC(=O)c1cccs1)C(=O)N[C@@H](Cc1ccccc1)C(=O)N[C@@H](CC(C)C)C(=O)[C@@]1(C)CO1 | 10
4 | CC(C)C[C@H](NC(=O)c1nccn1C)C(=O)N[C@@H](Cc1ccccc1)C(=O)N[C@@H](CC(C)C)C(=O)[C@@]1(C)CO1 | 122
5 | CC(C)C[C@H](NC(=O)c1ccncc1)C(=O)N[C@@H](Cc1ccccc1)C(=O)N[C@@H](CC(C)C)C(=O)[C@@]1(C)CO1 | 20
6 | CC(C)C[C@H](NC(=O)c1ccno1)C(=O)N[C@@H](Cc1ccccc1)C(=O)N[C@@H](CC(C)C)C(=O)[C@@]1(C)CO1 | 5.8
7 | CC(C)C[C@H](NC(=O)[C@H](Cc1ccccc1)NC(=O)[C@H](Cc1ccccn1)NC(=O)c1cc(CN2CCOCC2)on1)C(=O)[C@@]1(C)CO1 | 5.2
8 | CC(C)C[C@H](NC(=O)[C@H](Cc1ccccc1)NC(=O)CN1CCOCC1)C(=O)[C@@]1(C)CO1 | > 1000
9 | CC(C)C[C@H](NC(=O)[C@H](Cc1ccccc1)NC(=O)[C@H](Cc1cscn1)NC(=O)c1cc(CN2CCOCC2)on1)C(=O)[C@@]1(C)CO1 | 6.9
10 | Cc1cc(C(=O)N[C@@H](Cc2ccncc2)C(=O)N[C@@H](Cc2ccccc2)C(=O)N[C@@H](CC(C)C)C(=O)[C@@]2(C)CO2)no1 | 2.8
11 | CC(C)C[C@H](NC(=O)c1ccon1)C(=O)N[C@@H](Cc1ccccc1)C(=O)N[C@@H](CC(C)C)C(=O)[C@@]1(C)CO1 | 7.4
12 | CC(C)C[C@H](NC(=O)[C@@H]1CCCO1)C(=O)N[C@@H](Cc1ccccc1)C(=O)N[C@@H](CC(C)C)C(=O)[C@@]1(C)CO1 | 42
13 | COC[C@H](NC(=O)c1cc(CN2CCOCC2)on1)C(=O)N[C@@H](Cc1ccccc1)C(=O)N[C@@H](CC(C)C)C(=O)[C@@]1(C)CO1 | 5.7
14 | CC(C)C[C@H](NC(=O)c1ccoc1)C(=O)N[C@@H](Cc1ccccc1)C(=O)N[C@@H](CC(C)C)C(=O)[C@@]1(C)CO1 | 34

test system: not listed separately; test: Inhibition of chymotrypsin-like activity of 20S proteasome in human MOLT4 cells after 1 hr by […]; type: cell-based; settings: MOLT-4, 1 h

Row | SMILES | IC50 [nM]
15 | CC(C)C[C@H](NC(=O)[C@H](Cc1ccccc1)NC(=O)[C@H](Cc1ccncc1)NC(=O)c1cc(CN2CCOCC2)on1)C(=O)[C@@]1(C)CO1 | 14
16 | COCc1cc(C(=O)N[C@@H](CC(C)C)C(=O)N[C@@H](Cc2ccccc2)C(=O)N[C@@H](CC(C)C)C(=O)[C@@]2(C)CO2)no1 | 8.1
17 | CC(C)C[C@H](NC(=O)c1cccs1)C(=O)N[C@@H](Cc1ccccc1)C(=O)N[C@@H](CC(C)C)C(=O)[C@@]1(C)CO1 | 40
18 | CC(C)C[C@H](NC(=O)c1nccn1C)C(=O)N[C@@H](Cc1ccccc1)C(=O)N[C@@H](CC(C)C)C(=O)[C@@]1(C)CO1 | 161
19 | CC(C)C[C@H](NC(=O)c1ccncc1)C(=O)N[C@@H](Cc1ccccc1)C(=O)N[C@@H](CC(C)C)C(=O)[C@@]1(C)CO1 | 55
20 | CC(C)C[C@H](NC(=O)c1ccno1)C(=O)N[C@@H](Cc1ccccc1)C(=O)N[C@@H](CC(C)C)C(=O)[C@@]1(C)CO1 | 65
21 | CC(C)C[C@H](NC(=O)[C@H](Cc1ccccc1)NC(=O)[C@H](Cc1ccccn1)NC(=O)c1cc(CN2CCOCC2)on1)C(=O)[C@@]1(C)CO1 | 31
22 | CC(C)C[C@H](NC(=O)[C@H](Cc1ccccc1)NC(=O)CN1CCOCC1)C(=O)[C@@]1(C)CO1 | > 1000
23 | CC(C)C[C@H](NC(=O)[C@H](Cc1ccccc1)NC(=O)[C@H](Cc1cscn1)NC(=O)c1cc(CN2CCOCC2)on1)C(=O)[C@@]1(C)CO1 | 59
24 | Cc1cc(C(=O)N[C@@H](Cc2ccncc2)C(=O)N[C@@H](Cc2ccccc2)C(=O)N[C@@H](CC(C)C)C(=O)[C@@]2(C)CO2)no1 | 8.6
25 | CC(C)C[C@H](NC(=O)c1ccon1)C(=O)N[C@@H](Cc1ccccc1)C(=O)N[C@@H](CC(C)C)C(=O)[C@@]1(C)CO1 | 50
26 | CC(C)C[C@H](NC(=O)[C@@H]1CCCO1)C(=O)N[C@@H](Cc1ccccc1)C(=O)N[C@@H](CC(C)C)C(=O)[C@@]1(C)CO1 | 180
27 | COC[C@H](NC(=O)c1cc(CN2CCOCC2)on1)C(=O)N[C@@H](Cc1ccccc1)C(=O)N[C@@H](CC(C)C)C(=O)[C@@]1(C)CO1 | 26
28 | CC(C)C[C@H](NC(=O)c1ccoc1)C(=O)N[C@@H](Cc1ccccc1)C(=O)N[C@@H](CC(C)C)C(=O)[C@@]1(C)CO1 | 116

test system: Mus musculus; test: Inhibition of chymotrypsin-like activity of 20S proteasome in BALB/c mouse adrenal gland 40 mg/kg, po after 1 hr; type: functional; design: scale not given: the % may be the effect or the level left; settings: not given

Row | SMILES | Activity [%]
29 | CC(C)C[C@H](NC(=O)[C@H](Cc1ccccc1)NC(=O)[C@H](Cc1ccncc1)NC(=O)c1cc(CN2CCOCC2)on1)C(=O)[C@@]1(C)CO1 | 96
30 | CC(C)C[C@H](NC(=O)[C@H](Cc1ccccc1)NC(=O)[C@H](Cc1ccccn1)NC(=O)c1cc(CN2CCOCC2)on1)C(=O)[C@@]1(C)CO1 | 92
31 | CC(C)C[C@H](NC(=O)[C@H](Cc1ccccc1)NC(=O)[C@H](Cc1cscn1)NC(=O)c1cc(CN2CCOCC2)on1)C(=O)[C@@]1(C)CO1 | 93
32 | Cc1cc(C(=O)N[C@@H](Cc2ccncc2)C(=O)N[C@@H](Cc2ccccc2)C(=O)N[C@@H](CC(C)C)C(=O)[C@@]2(C)CO2)no1 | 28
33 | COC[C@H](NC(=O)c1cc(CN2CCOCC2)on1)C(=O)N[C@@H](Cc1ccccc1)C(=O)N[C@@H](CC(C)C)C(=O)[C@@]1(C)CO1 | 57

test system: not listed separately; test: Cytotoxicity against human MESSA cells assessed as cell viability after 72 hrs by CellTiter-Glo luminescent assay; type: functional, cell-based; settings: MES-SA

Row | SMILES | IC50 [nM]
34 | CC(C)C[C@H](NC(=O)[C@H](Cc1ccccc1)NC(=O)[C@H](Cc1ccncc1)NC(=O)c1cc(CN2CCOCC2)on1)C(=O)[C@@]1(C)CO1 | 8.7
35 | COCc1cc(C(=O)N[C@@H](CC(C)C)C(=O)N[C@@H](Cc2ccccc2)C(=O)N[C@@H](CC(C)C)C(=O)[C@@]2(C)CO2)no1 | 23
36 | CC(C)C[C@H](NC(=O)c1cccs1)C(=O)N[C@@H](Cc1ccccc1)C(=O)N[C@@H](CC(C)C)C(=O)[C@@]1(C)CO1 | 34
37 | CC(C)C[C@H](NC(=O)c1nccn1C)C(=O)N[C@@H](Cc1ccccc1)C(=O)N[C@@H](CC(C)C)C(=O)[C@@]1(C)CO1 | 67
38 | CC(C)C[C@H](NC(=O)c1ccncc1)C(=O)N[C@@H](Cc1ccccc1)C(=O)N[C@@H](CC(C)C)C(=O)[C@@]1(C)CO1 | 33
39 | CC(C)C[C@H](NC(=O)c1ccno1)C(=O)N[C@@H](Cc1ccccc1)C(=O)N[C@@H](CC(C)C)C(=O)[C@@]1(C)CO1 | 58
40 | CC(C)C[C@H](NC(=O)[C@H](Cc1ccccc1)NC(=O)[C@H](Cc1ccccn1)NC(=O)c1cc(CN2CCOCC2)on1)C(=O)[C@@]1(C)CO1 | 11
41 | CC(C)C[C@H](NC(=O)[C@H](Cc1ccccc1)NC(=O)CN1CCOCC1)C(=O)[C@@]1(C)CO1 | > 1000
42 | CC(C)C[C@H](NC(=O)[C@H](Cc1ccccc1)NC(=O)[C@H](Cc1cscn1)NC(=O)c1cc(CN2CCOCC2)on1)C(=O)[C@@]1(C)CO1 | 7.9
43 | Cc1cc(C(=O)N[C@@H](Cc2ccncc2)C(=O)N[C@@H](Cc2ccccc2)C(=O)N[C@@H](CC(C)C)C(=O)[C@@]2(C)CO2)no1 | 8.6
44 | CC(C)C[C@H](NC(=O)c1ccon1)C(=O)N[C@@H](Cc1ccccc1)C(=O)N[C@@H](CC(C)C)C(=O)[C@@]1(C)CO1 | 73
45 | CC(C)C[C@H](NC(=O)[C@@H]1CCCO1)C(=O)N[C@@H](Cc1ccccc1)C(=O)N[C@@H](CC(C)C)C(=O)[C@@]1(C)CO1 | 130
46 | COC[C@H](NC(=O)c1cc(CN2CCOCC2)on1)C(=O)N[C@@H](Cc1ccccc1)C(=O)N[C@@H](CC(C)C)C(=O)[C@@]1(C)CO1 | 13
47 | CC(C)C[C@H](NC(=O)c1ccoc1)C(=O)N[C@@H](Cc1ccccc1)C(=O)N[C@@H](CC(C)C)C(=O)[C@@]1(C)CO1 | 54

test system: not listed separately; test: Cytotoxicity against multidrug resistance transporter expressing doxorubicin resistant human MESSA cells assessed as cell viability after 72 hrs by CellTiter-Glo luminescent assay; type: functional, cell-based; settings: MES-SA

Row | SMILES | IC50 [nM]
48 | CC(C)C[C@H](NC(=O)[C@H](Cc1ccccc1)NC(=O)[C@H](Cc1ccncc1)NC(=O)c1cc(CN2CCOCC2)on1)C(=O)[C@@]1(C)CO1 | > 1000
49 | COCc1cc(C(=O)N[C@@H](CC(C)C)C(=O)N[C@@H](Cc2ccccc2)C(=O)N[C@@H](CC(C)C)C(=O)[C@@]2(C)CO2)no1 | 28
50 | CC(C)C[C@H](NC(=O)c1cccs1)C(=O)N[C@@H](Cc1ccccc1)C(=O)N[C@@H](CC(C)C)C(=O)[C@@]1(C)CO1 | 120
51 | CC(C)C[C@H](NC(=O)c1nccn1C)C(=O)N[C@@H](Cc1ccccc1)C(=O)N[C@@H](CC(C)C)C(=O)[C@@]1(C)CO1 | 164
52 | CC(C)C[C@H](NC(=O)c1ccncc1)C(=O)N[C@@H](Cc1ccccc1)C(=O)N[C@@H](CC(C)C)C(=O)[C@@]1(C)CO1 | > 1000
53 | CC(C)C[C@H](NC(=O)c1ccno1)C(=O)N[C@@H](Cc1ccccc1)C(=O)N[C@@H](CC(C)C)C(=O)[C@@]1(C)CO1 | 82
54 | CC(C)C[C@H](NC(=O)[C@H](Cc1ccccc1)NC(=O)[C@H](Cc1ccccn1)NC(=O)c1cc(CN2CCOCC2)on1)C(=O)[C@@]1(C)CO1 | 421
55 | CC(C)C[C@H](NC(=O)[C@H](Cc1ccccc1)NC(=O)CN1CCOCC1)C(=O)[C@@]1(C)CO1 | > 1000
56 | CC(C)C[C@H](NC(=O)[C@H](Cc1ccccc1)NC(=O)[C@H](Cc1cscn1)NC(=O)c1cc(CN2CCOCC2)on1)C(=O)[C@@]1(C)CO1 | 841
57 | Cc1cc(C(=O)N[C@@H](Cc2ccncc2)C(=O)N[C@@H](Cc2ccccc2)C(=O)N[C@@H](CC(C)C)C(=O)[C@@]2(C)CO2)no1 | 271
58 | CC(C)C[C@H](NC(=O)c1ccon1)C(=O)N[C@@H](Cc1ccccc1)C(=O)N[C@@H](CC(C)C)C(=O)[C@@]1(C)CO1 | 123
59 | CC(C)C[C@H](NC(=O)[C@@H]1CCCO1)C(=O)N[C@@H](Cc1ccccc1)C(=O)N[C@@H](CC(C)C)C(=O)[C@@]1(C)CO1 | 159
60 | COC[C@H](NC(=O)c1cc(CN2CCOCC2)on1)C(=O)N[C@@H](Cc1ccccc1)C(=O)N[C@@H](CC(C)C)C(=O)[C@@]1(C)CO1 | 147
61 | CC(C)C[C@H](NC(=O)c1ccoc1)C(=O)N[C@@H](Cc1ccccc1)C(=O)N[C@@H](CC(C)C)C(=O)[C@@]1(C)CO1 | 125

test system: not listed separately; test: Chemical stability in simulated intestinal fluid assessed as compound remaining at 4 uM after 15 mins; type: physicochemical; settings: read-out: Stability

Row | SMILES | remaining at 0.25 h, 4 µM [%]
62 | CC(C)C[C@H](NC(=O)[C@H](Cc1ccccc1)NC(=O)[C@H](Cc1ccncc1)NC(=O)c1cc(CN2CCOCC2)on1)C(=O)[C@@]1(C)CO1 | 60
63 | CC(C)C[C@H](NC(=O)[C@H](Cc1ccccc1)NC(=O)[C@H](Cc1ccccn1)NC(=O)c1cc(CN2CCOCC2)on1)C(=O)[C@@]1(C)CO1 | 20
64 | CC(C)C[C@H](NC(=O)[C@H](Cc1ccccc1)NC(=O)[C@H](Cc1cscn1)NC(=O)c1cc(CN2CCOCC2)on1)C(=O)[C@@]1(C)CO1 | 15
65 | Cc1cc(C(=O)N[C@@H](Cc2ccncc2)C(=O)N[C@@H](Cc2ccccc2)C(=O)N[C@@H](CC(C)C)C(=O)[C@@]2(C)CO2)no1 | 90
66 | COC[C@H](NC(=O)c1cc(CN2CCOCC2)on1)C(=O)N[C@@H](Cc1ccccc1)C(=O)N[C@@H](CC(C)C)C(=O)[C@@]1(C)CO1 | 80
